In PubChem BioAssay AID256 (DTP/NCI, 2004):
Values joined by “and” are separate entries in the source; they are usually repeats but may differ in a detail not shown here. Equal values may be shown once. Inconclusive results and toxic doses are left out.

Tested on: CD2F1 mice, L1210 leukemia ip, survival T/C
Assay: NCI In Vivo Anticancer Drug Screen. Data for tumor model L1210 Leukemia (intraperitoneal) in CD2F1 (CDF1) mice
Settings: higher = longer survival
Procedure, shortened: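 Ratio T/C, where T is the treated-group value and C the vehicle-dosed control value, from mice implanted with a transplantable tumor.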

[1] = endpoint: mean survival time, dose: 50.0 mg/kg/injection, schedule: Q04DX003 (ip), vehicle: saline with Tween-80
[2] = endpoint: mean survival time, dose: 100.0 mg/kg/injection, schedule: Q04DX003 (ip), vehicle: saline with Tween-80
[3] = endpoint: mean survival time, dose: 200.0 mg/kg/injection, schedule: Q04DX003 (ip), vehicle: saline with Tween-80
[4] = endpoint: mean survival time, dose: 400.0 mg/kg/injection, schedule: Q04DX003 (ip), vehicle: saline with Tween-80
[5] = endpoint: mean survival time, dose: 50.0 mg/kg/injection, schedule: Q01DX009 (ip), vehicle: saline
[6] = endpoint: mean survival time, dose: 50.0 mg/kg/injection, schedule: Q01DX009 (ip), vehicle: saline with Tween-80
[7] = endpoint: mean survival time, dose: 100.0 mg/kg/injection, schedule: Q04DX003 (ip), vehicle: saline
[8] = endpoint: mean survival time, dose: 200.0 mg/kg/injection, schedule: Q04DX003 (ip), vehicle: saline
[9] = endpoint: mean survival time, dose: 400.0 mg/kg/injection, schedule: Q04DX003 (ip), vehicle: saline

For `O=C(O)c1cscn1.O=C(O)c1cscn1.[I][Pt][I]`, the T/C (endpoint: mean survival time, dose: 3.12 mg/kg/injection, schedule: Q04DX003 (ip), vehicle: distilled water + Tween-80) was 108 % of control, the T/C (endpoint: mean survival time, dose: 6.25 mg/kg/injection, schedule: Q04DX003 (ip), vehicle: distilled water + Tween-80) was 101 % of control and the T/C (endpoint: mean survival time, dose: 12.5 mg/kg/injection, schedule: Q04DX003 (ip), vehicle: distilled water + Tween-80) was 104 % of control. The T/C (endpoint: mean survival time, dose: 25.0 mg/kg/injection, schedule: Q04DX003 (ip), vehicle: distilled water + Tween-80) was 102 % of control, the T/C (endpoint: mean survival time, dose: 50.0 mg/kg/injection, schedule: Q04DX003 (ip), vehicle: distilled water + Tween-80) was 104 % of control and the T/C [1] was 110 % of control. The T/C (endpoint: mean survival time, dose: 100.0 mg/kg/injection, schedule: Q04DX003 (ip), vehicle: distilled water + Tween-80) was 114 % of control, the T/C [2] was 104 % of control and the T/C (endpoint: mean survival time, dose: 200.0 mg/kg/injection, schedule: Q04DX003 (ip), vehicle: distilled water + Tween-80) was 119 % of control. The T/C [3] was 122 % of control and the T/C [4] was 112 % of control.

For `COc1ccc2c(c1)CCn1c(C)c(COC(=O)NC(C)C)c(COC(=O)NC(C)C)c1-2`, the T/C (endpoint: median survival time, dose: 3.12 mg/kg/injection, schedule: Q01DX009 (ip), vehicle: distilled water + Tween-80) was 120 % of control, the T/C (endpoint: median survival time, dose: 3.13 mg/kg/injection, schedule: Q01DX009 (ip), vehicle: distilled water + Tween-80) was 123 % of control and the T/C (endpoint: median survival time, dose: 6.25 mg/kg/injection, schedule: Q01DX009 (ip), vehicle: distilled water + Tween-80) was 114 % of control. For the same compound, the T/C (endpoint: median survival time, dose: 25.0 mg/kg/injection, schedule: Q01DX009 (ip), vehicle: distilled water + Tween-80) was 152 % of control and 157 % of control and the T/C (endpoint: median survival time, dose: 50.0 mg/kg/injection, schedule: Q01DX009 (ip), vehicle: distilled water + Tween-80) was 114 % of control.

For `ClCCN(CC#CCCCC#CCN(CCCl)CCCl)CCCl`, the T/C (endpoint: mean survival time, dose: 3.12 mg/kg/injection, schedule: Q01DX009 (ip), vehicle: saline) was 121 % of control, the T/C (endpoint: mean survival time, dose: 6.25 mg/kg/injection, schedule: Q01DX009 (ip), vehicle: saline) was 119 % of control and 121 % of control and the T/C (endpoint: mean survival time, dose: 25.0 mg/kg/injection, schedule: Q01DX009 (ip), vehicle: saline) was 162 % of control. The T/C [5] was 89 % of control and 104 % of control.

`O=[N+]([O-])O.O=[N+]([O-])O.[NH-]C1CCCCC1[NH-].[Pt+2]` (stereo not drawn) was tested, and the T/C (endpoint: mean survival time, dose: 0.03 mg/kg/injection, schedule: Q01DX009 (ip), vehicle: other) was 120 % of control, the T/C (endpoint: mean survival time, dose: 0.13 mg/kg/injection, schedule: Q04DX003 (ip), vehicle: other) was 120 % of control and the T/C (endpoint: mean survival time, dose: 0.19 mg/kg/injection, schedule: Q04DX003 (ip), vehicle: saline) was 119 % of control. For the same compound, the T/C (endpoint: mean survival time, dose: 0.25 mg/kg/injection, schedule: Q01DX009 (ip), vehicle: dextrose) was 98 % of control, the T/C (endpoint: mean survival time, dose: 0.39 mg/kg/injection, schedule: Q01DX005 (ip), vehicle: saline) was 119 % of control and the T/C (endpoint: mean survival time, dose: 0.39 mg/kg/injection, schedule: Q04DX003 (ip), vehicle: saline) was 120 % of control. For the same compound, the T/C (endpoint: mean survival time, dose: 0.5 mg/kg/injection, schedule: Q01DX001 (ip), vehicle: other) was 113 % of control, the T/C (endpoint: mean survival time, dose: 1.0 mg/kg/injection, schedule: Q01DX009 (ip), vehicle: dextrose) was 119 % of control and the T/C (endpoint: mean survival time, dose: 1.0 mg/kg/injection, schedule: Q01DX009 (ip), vehicle: other) was 90 % of control. For the same compound, the T/C (endpoint: mean survival time, dose: 3.12 mg/kg/injection, schedule: Q01DX005 (oral), vehicle: saline) was 97 % of control, the T/C (endpoint: mean survival time, dose: 4.0 mg/kg/injection, schedule: Q04DX003 (ip), vehicle: other) was 95 % of control and the T/C (endpoint: mean survival time, dose: 6.25 mg/kg/injection, schedule: Q01DX005 (oral), vehicle: saline) was 97 % of control. The T/C (endpoint: mean survival time, dose: 12.5 mg/kg/injection, schedule: Q04DX003 (ip), vehicle: saline) was 100 % of control.

`NC(=O)c1ccc[n+](CCN(CCCl)c2ccc3ccccc3c2)c1` was tested, and the T/C (endpoint: mean survival time, dose: 1.25 mg/kg/injection, schedule: Q01DX009 (ip), vehicle: Klucel (hydroxypropylcellulose) (HPC)) was 104 % of control, the T/C (endpoint: mean survival time, dose: 2.5 mg/kg/injection, schedule: Q01DX009 (ip), vehicle: Klucel (hydroxypropylcellulose) (HPC)) was 107 % of control and the T/C (endpoint: mean survival time, dose: 5.0 mg/kg/injection, schedule: Q01DX009 (ip), vehicle: Klucel (hydroxypropylcellulose) (HPC)) was 102 % of control.

In the case of `N#Cc1ccc([N+](=O)[O-])o1`, the T/C (endpoint: mean survival time, dose: 12.5 mg/kg/injection, schedule: Q01DX009 (ip), vehicle: saline with Tween-80) is reported as 104 % of control, the T/C (endpoint: mean survival time, dose: 25.0 mg/kg/injection, schedule: Q01DX009 (ip), vehicle: saline with Tween-80) is reported as 101 % of control and the T/C (endpoint: mean survival time, dose: 25.0 mg/kg/injection, schedule: Q04DX003 (ip), vehicle: saline with Tween-80) is reported as 102 % of control. For the same compound, the T/C [6] was 92 % of control and the T/C [1] was 96 % of control.

`COC(=O)Nc1nc2ccc(C(=O)c3ccccc3)cc2[nH]1` was tested, and the T/C (endpoint: mean survival time, dose: 2.0 mg/kg/injection, schedule: Q04DX003 (ip), vehicle: saline with Tween-80) was 94 % of control, the T/C (endpoint: mean survival time, dose: 4.0 mg/kg/injection, schedule: Q04DX003 (ip), vehicle: saline with Tween-80) was 94 % of control and the T/C (endpoint: mean survival time, dose: 8.0 mg/kg/injection, schedule: Q04DX003 (ip), vehicle: saline with Tween-80) was 91 % of control. The T/C (endpoint: mean survival time, dose: 16.0 mg/kg/injection, schedule: Q04DX003 (ip), vehicle: saline with Tween-80) was 100 % of control and 112 % of control.

For `O=C1c2ccccc2C(=O)c2c(O)ccc(O)c21`, the T/C [5] was 106 % of control, the T/C (endpoint: mean survival time, dose: 100.0 mg/kg/injection, schedule: Q01DX001 (ip), vehicle: saline with Tween-80) was 88 % of control and the T/C (endpoint: mean survival time, dose: 100.0 mg/kg/injection, schedule: Q01DX009 (ip), vehicle: saline) was 97 % of control. For the same compound, the T/C [2] was 94 % of control, the T/C (endpoint: mean survival time, dose: 200.0 mg/kg/injection, schedule: Q01DX001 (ip), vehicle: saline with Tween-80) was 91 % of control and the T/C (endpoint: mean survival time, dose: 200.0 mg/kg/injection, schedule: Q01DX009 (ip), vehicle: saline) was 109 % of control. The T/C [3] was 102 % of control, the T/C (endpoint: mean survival time, dose: 400.0 mg/kg/injection, schedule: Q01DX001 (ip), vehicle: saline with Tween-80) was 86 % of control and the T/C [4] was 103 % of control.

In the case of `COc1cc2ccc3c[n+](C)ccc3c2cc1OC`, the T/C (endpoint: mean survival time, dose: 25.0 mg/kg/injection, schedule: Q01DX009 (ip), vehicle: water) is reported as 102 % of control and 100 % of control, the T/C (endpoint: mean survival time, dose: 50.0 mg/kg/injection, schedule: Q01DX009 (ip), vehicle: water) is reported as 107 % of control and 104 % of control and the T/C (endpoint: mean survival time, dose: 100.0 mg/kg/injection, schedule: Q01DX009 (ip), vehicle: water) is reported as 94 % of control and 114 % of control.

For `COC(=O)C12OCC34C(CC5C(C)C6=CC(=O)OC6=CC5(C)C3C(O)C1O)OC(=O)C(OC(C)=O)C24` (stereo not drawn), the T/C (endpoint: median survival time, dose: 0.13 mg/kg/injection, schedule: Q01DX009 (ip), vehicle: saline + alcohol) was 98 % of control, the T/C (endpoint: median survival time, dose: 0.25 mg/kg/injection, schedule: Q01DX009 (ip), vehicle: saline + alcohol) was 98 % of control and the T/C (endpoint: median survival time, dose: 0.5 mg/kg/injection, schedule: Q01DX009 (ip), vehicle: saline + alcohol) was 98 % of control. For the same compound, the T/C (endpoint: median survival time, dose: 1.0 mg/kg/injection, schedule: Q01DX009 (ip), vehicle: saline + alcohol) was 100 % of control, the T/C (endpoint: median survival time, dose: 2.0 mg/kg/injection, schedule: Q01DX009 (ip), vehicle: saline + alcohol) was 102 % of control and 103 % of control and the T/C (endpoint: median survival time, dose: 4.0 mg/kg/injection, schedule: Q01DX009 (ip), vehicle: saline + alcohol) was 102 % of control. For the same compound, the T/C (endpoint: median survival time, dose: 8.0 mg/kg/injection, schedule: Q01DX009 (ip), vehicle: saline + alcohol) was 94 % of control and the T/C (endpoint: median survival time, dose: 16.0 mg/kg/injection, schedule: Q01DX009 (ip), vehicle: saline + alcohol) was 96 % of control.

For `c1ccc(CNc2ncnc3[nH]ncc23)cc1`, the T/C (endpoint: mean survival time, dose: 1.12 mg/kg/injection, schedule: Q01DX Z (ip), vehicle: carboxymethylcellulose (CMC)) was 100 % of control, the T/C (endpoint: mean survival time, dose: 2.25 mg/kg/injection, schedule: Q01DX Z (ip), vehicle: carboxymethylcellulose (CMC)) was 103 % of control and the T/C (endpoint: mean survival time, dose: 4.5 mg/kg/injection, schedule: Q01DX Z (ip), vehicle: carboxymethylcellulose (CMC)) was 100 % of control. For the same compound, the T/C (endpoint: mean survival time, dose: 9.0 mg/kg/injection, schedule: Q01DX Z (ip), vehicle: carboxymethylcellulose (CMC)) was 102 % of control.

For `CC[CH2][Sn]([CH2]CC)([CH2]CCC#N)[O]C(C)=O`, the T/C (endpoint: mean survival time, dose: 0.09 mg/kg/injection, schedule: Q01DX009 (ip), vehicle: saline) was 97 % of control, the T/C (endpoint: mean survival time, dose: 0.19 mg/kg/injection, schedule: Q01DX009 (ip), vehicle: saline) was 101 % of control and the T/C (endpoint: mean survival time, dose: 0.39 mg/kg/injection, schedule: Q01DX009 (ip), vehicle: saline) was 100 % of control and 105 % of control. The T/C (endpoint: mean survival time, dose: 1.56 mg/kg/injection, schedule: Q01DX009 (ip), vehicle: saline) was 103 % of control.

In the case of `Clc1ccc2nc(C(Cl)(Cl)Cl)nc(NCCN3CCCCC3)c2c1`, the T/C [6] is reported as 89 % of control, the T/C (endpoint: mean survival time, dose: 100.0 mg/kg/injection, schedule: Q01DX009 (ip), vehicle: saline with Tween-80) is reported as 113 % of control and the T/C (endpoint: mean survival time, dose: 200.0 mg/kg/injection, schedule: Q01DX009 (ip), vehicle: saline with Tween-80) is reported as 97 % of control. For the same compound, the T/C [3] was 91 % of control.

With `CC(=O)OC1CCCC(OC(C)=O)C1OC(C)=O` (stereo not drawn) the T/C [7] was 107 % of control, the T/C [8] was 96 % of control and the T/C [9] was 101 % of control.

With `CCOC(=O)C(N)CSCc1ccccc1` (stereo not drawn) the T/C [7] was 103 % of control, the T/C [8] was 97 % of control and the T/C [9] was 101 % of control.
